Patent publication US20250145589A1, “PYRIDINE DERIVATIVE AND USE THEREOF” (SICHUAN HUIYU PHARMACEUTICAL CO., LTD., priority 2021, published 2025)
pIC50: −log10 of the molar value. Like-named read-outs stand apart in the source and are kept apart here.

Key:
PI3Kα = PI3Kα (Homo sapiens (Human), UniProt P42336); assay: Inhibition of PI3Kα efficacy assay (ADP-Glo kinase assay); assay type: biochemical; conditions: read-out: PI3Kα inhibitory activity (IC50)
How it was run: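 Eight five-fold dilutions of compound (2 mM DMSO stock) tested; kinase reaction with PI and ATP ran 60 min at RT, followed by ADP-Glo and detection reagent steps of 40 min each. Four-parameter logistic fitting gave IC50 values.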

[1] = tested on: MIA PaCa-2 cells (KRAS G12C mutant); assay: MIA PaCa-2 cell anti-proliferation (CellTiter-Glo); assay type: cell-based; conditions: Homo sapiens, 72 h; MIA Paca-2 cells, 3 days, Table 7; read-out: MIA PaCa-2 (IC50)
How it was run: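 Viable-cell luminescence (CellTiter-Glo, ≥30 min at 25 °C) measured after a 3-day, 37 °C exposure to compounds at 9 points, 4-fold spaced, in DMEM containing 10% FBS plus 2.5% horse serum. IC50 derived versus no-inhibitor wells.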

KRAS^G12C-SOS1 = KRAS^G12C-SOS1 (Homo sapiens (Human), UniProt P01116, G12C); assay: HTRF KRAS G12C/SOS1 binding assay; conditions: Table 5
Experimental: Initially, a 2 mM stock solution of the test compound (dissolved in DMSO) was serially diluted in five-fold concentrations using DMSO to obtain eight working solutions 1 (200×). Subsequently, each of the eight working solutions 1 was further diluted in a 20-fold gradient by adding 5 μL into 95 μL of Diluent buffer, mixed completely with vortex mixer, resulting in eight working solutions 2 (10×). […] Subsequently, 5 μL of Anti-tag 1-Tb^3+ stock solution and 5 μL of Anti-tag2-XL665 were added to each well, mixed, and incubated at 4° C. for 3 hours. Remove the plate and read on an HTRF® compatible reader, with the excitation light wavelength set at 337 nm and readings recorded at 620 nm and 665 nm. The data results were presented as the ratio of the 665 nm signal value to the 620 nm signal value for each well, calculated as follows: […]. The inhibition rate was calculated using the following formula: […]
Data were analyzed using GraphPad Prism with log (inhibitor) vs. response-Variable Slope (four parameters) fitting calculations for IC50 values.

[2] = tested on: NCI-H358 cells (KRAS G12C mutant); assay: NCI-H358 cell proliferation inhibition (CellTiter-Glo); assay type: cell-based; conditions: Homo sapiens, NCI-H358, 72 h; H358 cells (G12C mutation), 3 days, Table 6; read-out: NCI-H358 (IC50)
PI3Kδ = PI3Kδ (Homo sapiens (Human), UniProt O00329); assay: Inhibition of PI3Kδ efficacy assay (ADP-Glo kinase assay); assay type: biochemical; conditions: read-out: PI3Kδ inhibitory activity (IC50)
How it was run: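 Luminescent ADP-Glo readout of PI3Kδ: after a 60 min RT reaction with PI/ATP substrate, ATP depletion (40 min) and ADP detection (40 min) steps followed. Compounds tested as eight five-fold serial dilutions; inhibition rates fitted to log(inhibitor) vs. response, variable slope, for IC50.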

[3] = tested on: MIA PaCa-2-AMGR drug-resistant cell line; assay: MIA PaCa-2-AMGR drug-resistant cell proliferation inhibitory activity test; assay type: cell-based; conditions: 72 h, MIA PaCa-2-AMGR drug-resistant cells, 3 days incubation, CellTiter-Glo
Experimental: Test Example 7: Generation of MIA PaCa-2-AMGR drug-resistant cell line
(§1) MIA PaCa-2 cells were seeded and cultured at 50 to 70% confluence in six-well plate with DMEM (10% FBS+2.5% horse serum) medium at 37° C. with 5% CO2. AMG510 was added for induction at three starting concentrations of 1 nM, 10 nM and 50 nM, and the medium containing the same concentration of AMG510 was replaced every 3 days. Cells were passaged once they reached confluence. After every two passages at a given concentration of drug, the concentration was increased in a 3-fold increment until final concentrations of 1 μM for AMG510 was achieved.
(§2) MIA PaCa-2-AMGR cells in logarithmic growth phase were collected and seeded into a clear-bottom 96-well plate at a density of 4×10^3 cells per well in 80 μL of medium, and then incubated overnight at 37° C. with 5% CO2. The compounds were serially diluted 5-fold in DMSO to obtain 8 concentrations, and then further diluted with DMEM (10% FBS+2.5% horse serum) cell culture medium to obtain the working solutions (5×), 20 μL of each working solution was added to the cell culture supernatant in each well, and the plate was further incubated for 3 days at 37° C. with 5% CO2. The plate was then equilibrated with CellTiter-Glo® reagent at room temperature (25° C.) for 10-30 minutes. After aspirating 50 μL of the medium, 50 μL of CellTiter-Glo® reagent was added. The cells were thoroughly mixed with the CellTiter-Glo® reagent using a microplate shaker for 2 minutes, and then incubated at room temperature for 10 minutes. The 96-well plate was placed in a multi-mode microplate reader to record the luminescence values (RLU).
(§3) The inhibitory rate was calculated using the following formula: […]
Data were analyzed using GraphPad Prism for IC50 values (Note: The negative control refers to the group without inhibitor) The data were presented m Table 9

[4] = tested on: NCI-H358-AMGR drug-resistant cell line; assay: NCI-H358-AMGR drug-resistant cell proliferation inhibitory activity test; assay type: cell-based; conditions: 72 h; NCI-H358-AMGR drug-resistant cells, 3 days incubation, CellTiter-Glo
Experimental: Test Example 6t Generation of NCI-H358-AMGR Drug-Resistant Cell Line
as §1, with “NCI-H358 cells” for “MIA PaCa-2 cells”, “with RPMI-640” for “with DMEM”, “(10% FBS)” for “(10% FBS+2.5% horse serum)”, “with 5%4” for “with 5%”, “After every,” for “After every”, “a 3-old” for “a 3-fold”
as §2, with “NCI-H358-AMGR cells” for “MIA PaCa-2-AMGR cells”, “with RPMI-640)” for “with DMEM”, “(10% FBS)” for “(10% FBS+2.5% horse serum)”, “of CellTiter-Glo®,” for “of CellTiter-Glo®”, “the CellTiter-Glo®,” for “the CellTiter-Glo®”, “The […]” for “The 96-well”
as §3
Data were analyzed using GraphPad Prism for IC50 values (Note: The negative control refers to the group without inhibitor).

Sequence of PI3Kα (P42336 whole entry): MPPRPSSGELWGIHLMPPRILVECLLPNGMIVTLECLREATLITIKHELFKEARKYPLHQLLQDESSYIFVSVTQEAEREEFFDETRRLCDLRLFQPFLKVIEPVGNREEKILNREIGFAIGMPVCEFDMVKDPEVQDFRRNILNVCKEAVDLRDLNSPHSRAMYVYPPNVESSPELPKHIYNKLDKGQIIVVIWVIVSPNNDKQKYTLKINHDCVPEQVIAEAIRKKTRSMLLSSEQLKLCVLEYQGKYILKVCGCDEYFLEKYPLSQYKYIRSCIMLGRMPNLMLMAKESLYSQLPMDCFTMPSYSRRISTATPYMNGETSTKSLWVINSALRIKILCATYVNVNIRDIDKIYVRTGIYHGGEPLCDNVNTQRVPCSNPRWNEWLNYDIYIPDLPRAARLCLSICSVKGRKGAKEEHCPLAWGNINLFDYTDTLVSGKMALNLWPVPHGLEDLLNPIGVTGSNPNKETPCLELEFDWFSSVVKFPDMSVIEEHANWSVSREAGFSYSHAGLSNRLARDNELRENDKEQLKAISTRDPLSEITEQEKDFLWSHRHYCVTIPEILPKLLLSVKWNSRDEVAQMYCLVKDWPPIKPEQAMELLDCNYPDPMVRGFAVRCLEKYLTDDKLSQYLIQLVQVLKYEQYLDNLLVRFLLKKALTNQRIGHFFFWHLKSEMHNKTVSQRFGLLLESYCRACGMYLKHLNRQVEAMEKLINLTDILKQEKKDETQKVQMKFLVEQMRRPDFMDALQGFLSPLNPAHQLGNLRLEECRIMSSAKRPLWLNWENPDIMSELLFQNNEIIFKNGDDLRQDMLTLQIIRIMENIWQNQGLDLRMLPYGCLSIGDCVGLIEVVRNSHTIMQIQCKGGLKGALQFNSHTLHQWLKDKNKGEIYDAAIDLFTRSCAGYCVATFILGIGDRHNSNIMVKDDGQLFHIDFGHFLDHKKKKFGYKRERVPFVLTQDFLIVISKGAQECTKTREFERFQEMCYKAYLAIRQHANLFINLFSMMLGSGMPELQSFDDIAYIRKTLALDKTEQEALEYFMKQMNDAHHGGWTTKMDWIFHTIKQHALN
Sequence of PI3Kα (P27986 whole entry partner): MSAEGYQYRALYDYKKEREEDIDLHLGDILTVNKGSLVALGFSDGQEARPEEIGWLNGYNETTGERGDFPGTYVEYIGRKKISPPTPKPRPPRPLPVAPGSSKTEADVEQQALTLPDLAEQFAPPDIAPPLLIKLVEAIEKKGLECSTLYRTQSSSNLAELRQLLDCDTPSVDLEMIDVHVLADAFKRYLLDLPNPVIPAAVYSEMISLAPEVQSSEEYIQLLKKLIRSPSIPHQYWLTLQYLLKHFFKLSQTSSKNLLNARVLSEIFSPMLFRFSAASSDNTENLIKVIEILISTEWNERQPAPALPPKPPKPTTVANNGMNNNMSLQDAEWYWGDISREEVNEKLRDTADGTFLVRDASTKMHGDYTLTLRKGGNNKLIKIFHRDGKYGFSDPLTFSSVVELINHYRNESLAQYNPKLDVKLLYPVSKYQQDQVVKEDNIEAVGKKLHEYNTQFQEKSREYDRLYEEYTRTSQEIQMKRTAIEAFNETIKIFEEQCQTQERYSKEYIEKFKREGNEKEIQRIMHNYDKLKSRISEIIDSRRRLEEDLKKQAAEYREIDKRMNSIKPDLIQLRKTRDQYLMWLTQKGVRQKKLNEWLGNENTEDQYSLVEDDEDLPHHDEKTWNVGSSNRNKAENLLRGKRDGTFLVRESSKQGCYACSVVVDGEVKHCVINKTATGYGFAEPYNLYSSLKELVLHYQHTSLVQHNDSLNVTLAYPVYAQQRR
Sequence of PI3Kδ (O00329 whole entry): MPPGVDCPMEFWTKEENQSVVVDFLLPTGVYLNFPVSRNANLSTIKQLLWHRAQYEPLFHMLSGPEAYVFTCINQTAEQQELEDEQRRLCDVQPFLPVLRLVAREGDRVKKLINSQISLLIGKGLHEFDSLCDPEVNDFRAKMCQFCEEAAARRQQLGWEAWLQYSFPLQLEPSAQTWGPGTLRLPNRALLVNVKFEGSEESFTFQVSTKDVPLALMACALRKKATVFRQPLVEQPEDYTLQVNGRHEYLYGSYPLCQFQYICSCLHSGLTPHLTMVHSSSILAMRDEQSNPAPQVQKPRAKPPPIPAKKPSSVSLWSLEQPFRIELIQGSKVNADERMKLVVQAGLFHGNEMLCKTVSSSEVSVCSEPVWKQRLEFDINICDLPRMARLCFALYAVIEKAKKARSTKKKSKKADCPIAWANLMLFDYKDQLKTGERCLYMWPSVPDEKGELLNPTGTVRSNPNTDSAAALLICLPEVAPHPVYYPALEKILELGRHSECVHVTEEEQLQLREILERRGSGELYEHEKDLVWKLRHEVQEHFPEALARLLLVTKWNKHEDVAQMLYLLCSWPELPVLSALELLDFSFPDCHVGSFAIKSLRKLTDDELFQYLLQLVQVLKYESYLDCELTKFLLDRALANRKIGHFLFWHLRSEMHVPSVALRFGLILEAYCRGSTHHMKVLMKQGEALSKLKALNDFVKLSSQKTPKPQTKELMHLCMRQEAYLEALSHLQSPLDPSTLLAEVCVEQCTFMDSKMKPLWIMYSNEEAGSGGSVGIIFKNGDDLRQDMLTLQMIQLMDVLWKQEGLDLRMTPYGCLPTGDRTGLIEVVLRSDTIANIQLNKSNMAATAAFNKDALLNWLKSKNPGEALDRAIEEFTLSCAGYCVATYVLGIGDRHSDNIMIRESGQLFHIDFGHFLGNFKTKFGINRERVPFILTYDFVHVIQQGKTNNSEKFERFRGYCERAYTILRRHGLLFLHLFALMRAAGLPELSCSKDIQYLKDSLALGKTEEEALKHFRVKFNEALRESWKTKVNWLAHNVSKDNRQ
Sequence of PI3Kδ (P27986 whole entry partner): as the sequence (P27986 whole entry partner) above
Sequence of KRAS^G12C-SOS1 (P01116-2 other isoform, or with tags, fused parts or gaps G12C): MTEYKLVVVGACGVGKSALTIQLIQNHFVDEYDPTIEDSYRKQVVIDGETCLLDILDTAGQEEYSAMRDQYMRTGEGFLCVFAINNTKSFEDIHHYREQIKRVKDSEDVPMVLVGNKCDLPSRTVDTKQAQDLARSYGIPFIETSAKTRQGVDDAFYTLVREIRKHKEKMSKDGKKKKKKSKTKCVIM

SMILES | pIC50 (PI3Kα; Table 2) | pIC50 [1] | pIC50 (KRAS^G12C-SOS1) | pIC50 [2] | pIC50 (PI3Kδ; Table 2) | pIC50 (PI3Kα; Table 4) | other results
COc1ncc(-c2ccc3ncnc(N4CCN(C(=O)/C=C/C(C)=O)CC4)c3c2)cc1NS(=O)(=O)c1cc(Cl)cn1C [Example 104, (E)-4-Chloro-N-(2-methoxy-5-(4-(4-(4-oxopent-2-enoyl)piperazin-1-yl)quinazoline-6-yl)pyridin-3-yl)-1-methyl-1H-pyrrole-2-sulfonamide] | 8.42 | 6.86 | 6.77 | 7.13 | 7.49 |  | 
COc1ncc(-c2ccc3ncnc(N4CCN(C(=O)/C=C/C(C)=O)CC4)c3n2)cc1NS(=O)(=O)c1ccccc1F [Example 133, (E)-2-fluoro-N-(2-methoxy-5-(4-(4-(4-oxopent-2-enoyl)piperazin-1-yl)pyrido[3,2-d]pyrimidin-6-yl)pyridin-3-yl)benzenesulfonamide] |  | 7.92 | 6.60 | 8.39 |  |  | pIC50 (PI3Kα; Table 3): 8.27; pIC50 (PI3Kδ; Table 3): 7.69
CC(=O)/C=C/C(=O)N1CCN(c2ncnc3ccc(-c4cnc(Cl)c(NS(=O)(=O)c5c(F)cccc5F)c4)cc23)[C@@H](C)C1 [Example 88, (S,E)-N-(2-chloro-5-(4-(2-methyl-4-(4-oxopent-2-enoyl)piperazin-1-yl)quinazolin-6-yl)pyridin-3-yl)-2,6-difluorobenzenesulfonamide] | 8.59 | 6.48 | 6.66 | 7.09 | 7.93 |  | 
COc1ncc(-c2ccc3ncnc(N4CCN(C(=O)/C=C/C(C)=O)CC4)c3c2)cc1NS(=O)(=O)c1ccncc1F [Example 103, (E)-3-fluoro-N-(2-methoxy-5-(4-(4-(4-oxopent-2-enoyl)piperazin-1-yl)quinazolin-6-yl)pyridin-3-yl)pyridine-4-sulfonamide] | 9.02 | 6.46 | 6.69 | 7.08 | 7.49 |  | 
COc1ncc(-c2ccc3ncnc(C4=CCN(C(=O)/C=C/C(C)=O)CC4)c3n2)cc1NS(=O)(=O)c1c(F)cccc1Cl [Example 241, (E)-2-chloro-6-fluoro-N-(2-methoxy-5-(4-(1-(4-oxopent-2-enoyl)-1,2,3,6-tetrahydropyridin-4-yl)pyrido[3,2-d]pyrimidin-6-yl)pyridin-3-yl)benzenesulfonamide] |  |  | 6.34 |  |  | 9.57 | pIC50 (PI3Kδ; Table 4): 8.53
COc1ncc(-c2ccc3ncnc(C4CCN(C(=O)/C=C/C(C)=O)CC4)c3n2)cc1NS(=O)(=O)c1c(F)cccc1Cl [Example 235, (E)-2-chloro-6-fluoro-N-(2-methoxy-5-(4-(1-(4-oxopent-2-enoyl)piperidin-4-yl)pyrido[3,2-d]pyrimidin-6-yl)pyridin-3-yl)benzenesulfonamide] |  |  | 6.95 |  |  | 9.52 | pIC50 (PI3Kδ; Table 4): 8.62
CC(=O)/C=C/C(=O)N1CCN(c2ncnc3ccc(-c4cnc(Cl)c(NS(=O)(=O)c5ccc(F)cc5F)c4)cc23)CC1 [Example 34, (E)-N-(2-chloro-5-(4-(4-(4-oxopent-2-enoyl)piperazin-1-yl)quinazolin-6-yl)pyridin-3-yl)-2,4-difluorobenzenesulfonamide] |  | 6.59 | 6.28 |  |  |  | pIC50 (PI3Kα; Table 1): 8.85; pIC50 (PI3Kδ; Table 1): 7.68
CNC(=O)/C=C/C(=O)N1CCN(c2ncnc3ccc(-c4cnc(OC)c(NS(=O)(=O)c5ccc(F)cc5F)c4)cc23)CC1 [Example 179, (E)-4-(4-(6-(5-((2,4-difluorophenyl)sulfonamido)-6-methoxy-pyridin-3-yl)quinazolin-4-yl)piperazin-1-yl)-N-methyl-4-oxobut-2-enamide] |  | 7.06 | 6.83 | 6.56 |  | 9.43 | 
COc1ncc(-c2ccc3ncnc(N4CCN(C(=O)/C=C/C(C)=O)CC4)c3n2)cc1NS(=O)(=O)c1ccc(F)cc1F [Example 132, (E)-2,4-difluoro-N-(2-methoxy-5-(4-(4-(4-oxopent-2-enoyl)piperazin-1-yl)pyrido[3,2-d]pyrimidin-6-yl)pyridin-3-yl)benzenesulfonamide] |  | 7.79 | 6.50 | 8.40 |  |  | pIC50 (PI3Kα; Table 3): 8.44; pIC50 (PI3Kδ; Table 3): 7.53
COc1ncc(-c2ccc3ncnc(C4CCN(C(=O)/C=C/C(C)=O)C4)c3c2)cc1NS(=O)(=O)c1ccc(F)cc1F (stereo not shown) [Example 247, (E)-2,4-difluoro-N-(2-methoxy-5-(4-(1-(4-oxopent-2-enoyl)pyrrolidin-3-yl)quinazolin-6-yl)pyridin-3-yl)benzenesulfonamide] |  |  | 6.56 |  |  | 9.28 | pIC50 (PI3Kδ; Table 4): 8.48
COc1ncc(-c2ccc3ncnc(N4CCC5(CN(C(=O)/C=C/C(C)=O)C5)C4)c3c2)cc1NS(=O)(=O)c1c(F)cc(F)cc1F [Example 97, (E)-2,4,6-trifluoro-N-(2-methoxy-5-(4-(2-(4-oxopent-2-enoyl)-2,6-diazaspiro[3.4]octan-6-yl)quinazolin-6-yl)pyridin-3-yl)benzenesulfonamide] | 8.85 | 6.96 | 6.99 | 7.86 | 7.85 |  | 
COc1ncc(-c2ccc3ncnc(N4[C@H](C)CN(C(=O)/C=C/C(C)=O)C[C@@H]4C)c3c2)cc1NS(=O)(=O)c1ccccc1F [Example 193, N-(5-(4-((2R,6S)-2,6-dimethyl-4-((E)-4-oxopent-2-enoyl)piperazin-1-yl)quinazolin-6-yl)-2-methoxypyridin-3-yl)-2-fluorobenzenesulfonamide] |  | 6.94 |  | 7.28 |  | 8.55 | pIC50 [3]: 7.18; pIC50 [4]: 7.67
